Activity calls are given as the source filed them.
Legend:
Caspase-6 = target: T1, Caspase-6 (Homo sapiens, UniProt P55212); assay: inhibition of CASP6 peptide cleavage – biochemical, VEID-R110 fluorescence, cherry-pick, dose response (AID 720632)
T1 sequence (P55212 whole entry): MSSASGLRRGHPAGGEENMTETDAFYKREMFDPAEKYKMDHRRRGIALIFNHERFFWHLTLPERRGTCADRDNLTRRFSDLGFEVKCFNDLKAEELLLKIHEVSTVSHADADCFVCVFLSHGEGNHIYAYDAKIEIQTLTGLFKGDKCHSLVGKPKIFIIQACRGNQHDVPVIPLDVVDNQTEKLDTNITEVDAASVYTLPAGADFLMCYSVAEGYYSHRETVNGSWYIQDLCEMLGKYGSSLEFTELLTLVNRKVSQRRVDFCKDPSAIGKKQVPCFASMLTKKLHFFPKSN

[1] = target: T2, Sentrin-specific protease 7 (Homo sapiens, UniProt Q9BQF6); format: functional;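 also: Luminescence-based dose-response confirmation of ultra-high-throughput screening hits, measuring inhibition of SENP7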
T2 sequence (Q9BQF6 whole entry): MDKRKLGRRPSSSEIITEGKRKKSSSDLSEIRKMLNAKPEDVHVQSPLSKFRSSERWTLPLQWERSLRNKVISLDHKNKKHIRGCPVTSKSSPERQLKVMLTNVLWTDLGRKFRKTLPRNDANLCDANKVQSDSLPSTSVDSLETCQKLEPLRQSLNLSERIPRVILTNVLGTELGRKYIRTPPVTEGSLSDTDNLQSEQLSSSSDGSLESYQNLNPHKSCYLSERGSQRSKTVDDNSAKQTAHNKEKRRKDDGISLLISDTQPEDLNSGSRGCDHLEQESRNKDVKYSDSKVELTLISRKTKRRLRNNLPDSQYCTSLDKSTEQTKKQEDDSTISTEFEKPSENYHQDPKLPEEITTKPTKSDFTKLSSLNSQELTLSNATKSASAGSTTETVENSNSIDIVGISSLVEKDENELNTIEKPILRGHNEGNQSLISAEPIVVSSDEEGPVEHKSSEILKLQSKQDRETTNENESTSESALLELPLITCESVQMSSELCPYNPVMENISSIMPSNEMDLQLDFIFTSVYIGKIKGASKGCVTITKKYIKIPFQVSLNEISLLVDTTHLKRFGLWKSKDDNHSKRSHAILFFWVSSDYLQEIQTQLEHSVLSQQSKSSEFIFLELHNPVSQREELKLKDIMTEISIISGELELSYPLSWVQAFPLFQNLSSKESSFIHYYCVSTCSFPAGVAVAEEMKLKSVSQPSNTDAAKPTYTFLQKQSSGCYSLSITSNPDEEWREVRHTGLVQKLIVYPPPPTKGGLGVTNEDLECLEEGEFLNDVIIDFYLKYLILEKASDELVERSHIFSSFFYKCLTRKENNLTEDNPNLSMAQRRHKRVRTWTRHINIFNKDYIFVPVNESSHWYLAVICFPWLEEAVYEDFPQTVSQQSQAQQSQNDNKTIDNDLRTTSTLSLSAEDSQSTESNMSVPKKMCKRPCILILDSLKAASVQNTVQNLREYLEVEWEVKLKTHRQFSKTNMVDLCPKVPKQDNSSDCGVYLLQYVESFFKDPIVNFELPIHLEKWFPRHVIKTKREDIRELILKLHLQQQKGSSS

[2] = target: T3, 1-phosphatidylinositol 4,5-bisphosphate phosphodiesterase gamma-1 (Homo sapiens, UniProt P19174); assay: Counterscreen for inhibitors of phospholipase C isozymes (PLC-B3): Fluorescence-based biochemical high throughput dose response assay to identify inhibitors of phospholipase C isozymes (PLC-gamma1).
T3 sequence (P19174 whole entry): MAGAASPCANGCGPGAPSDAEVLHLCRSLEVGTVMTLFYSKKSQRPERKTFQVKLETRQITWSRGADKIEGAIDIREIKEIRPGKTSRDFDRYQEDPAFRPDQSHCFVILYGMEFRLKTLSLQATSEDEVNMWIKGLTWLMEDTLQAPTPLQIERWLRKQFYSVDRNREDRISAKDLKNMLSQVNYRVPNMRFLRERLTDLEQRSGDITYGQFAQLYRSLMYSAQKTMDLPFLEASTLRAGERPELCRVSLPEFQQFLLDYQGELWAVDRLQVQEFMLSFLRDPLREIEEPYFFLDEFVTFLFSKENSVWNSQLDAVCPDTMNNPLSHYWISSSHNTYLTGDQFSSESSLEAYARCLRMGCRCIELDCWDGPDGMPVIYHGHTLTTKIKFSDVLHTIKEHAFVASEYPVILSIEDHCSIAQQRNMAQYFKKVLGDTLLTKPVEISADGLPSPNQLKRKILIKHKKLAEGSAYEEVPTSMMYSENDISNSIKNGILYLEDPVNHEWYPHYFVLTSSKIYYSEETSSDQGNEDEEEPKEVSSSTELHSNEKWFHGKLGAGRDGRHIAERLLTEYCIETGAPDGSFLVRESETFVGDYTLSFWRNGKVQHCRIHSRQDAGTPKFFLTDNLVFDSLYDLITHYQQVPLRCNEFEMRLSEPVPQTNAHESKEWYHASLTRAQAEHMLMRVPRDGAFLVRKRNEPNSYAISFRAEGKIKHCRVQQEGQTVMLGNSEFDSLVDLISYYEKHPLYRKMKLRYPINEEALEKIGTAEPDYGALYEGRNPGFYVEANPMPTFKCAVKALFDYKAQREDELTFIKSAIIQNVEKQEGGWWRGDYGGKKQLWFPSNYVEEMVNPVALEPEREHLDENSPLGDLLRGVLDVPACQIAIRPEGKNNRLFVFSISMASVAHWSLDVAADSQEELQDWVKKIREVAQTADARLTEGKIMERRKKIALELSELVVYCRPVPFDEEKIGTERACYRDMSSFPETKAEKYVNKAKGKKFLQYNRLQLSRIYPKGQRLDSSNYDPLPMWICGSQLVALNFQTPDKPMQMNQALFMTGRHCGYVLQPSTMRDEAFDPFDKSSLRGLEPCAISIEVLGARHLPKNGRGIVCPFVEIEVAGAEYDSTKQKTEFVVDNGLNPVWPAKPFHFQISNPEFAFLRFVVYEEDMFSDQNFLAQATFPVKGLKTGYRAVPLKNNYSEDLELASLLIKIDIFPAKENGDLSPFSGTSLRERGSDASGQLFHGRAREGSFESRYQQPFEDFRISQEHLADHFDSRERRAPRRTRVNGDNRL

[3] = target: 5-hydroxytryptamine receptor 5A (Homo sapiens, UniProt P47898); assay: Counterscreen for agonists of OPRM1-OPRD1 heterodimerization: luminescence-based cell-based high throughput dose response assay to identify agonists of 5-hydroxytryptamine (serotonin) 5A receptor (HTR5A). [Related pubchem assays (depositor defined):AID504326, AID504355, AID504692, AID504904, AID504905]; format: functional
cells [4] = format: functional, cell-based; details: HEK-CNG
cells [5] = format: functional

Sequence of 5-hydroxytryptamine receptor 5A (P47898 whole entry): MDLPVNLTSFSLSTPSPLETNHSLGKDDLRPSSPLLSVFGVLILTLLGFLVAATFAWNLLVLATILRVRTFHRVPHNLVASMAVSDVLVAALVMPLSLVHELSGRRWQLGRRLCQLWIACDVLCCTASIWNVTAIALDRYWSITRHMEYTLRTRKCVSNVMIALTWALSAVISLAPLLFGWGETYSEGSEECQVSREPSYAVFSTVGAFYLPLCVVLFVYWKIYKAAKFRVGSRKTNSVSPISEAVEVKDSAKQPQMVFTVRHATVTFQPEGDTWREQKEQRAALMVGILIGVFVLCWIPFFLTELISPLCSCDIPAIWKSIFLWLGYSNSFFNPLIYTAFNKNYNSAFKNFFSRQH

With `Oc1nc(Nc2ccccc2Cl)cc2ccccc12` the AC50 (Caspase-6) was 3.75 µM (active) and the IC50 [1] was 4.7 µM (active).
In the case of `O=C(CCN1C(=O)/C(=C\c2ccco2)SC1=S)Nc1ccc(C(=O)O)c(O)c1`, the IC50 [2] is reported as > 122 µM (inactive).
For `O=C1C=C(c2c(O)ccc3ccccc23)c2ccccc2C1=O`, the EC50 [3] was > 92.4 µM (inactive) and the EC50 (cells [4]) was > 29.9 µM (inactive).
With `Cc1nc2c(=O)n(C)c(=O)nc-2n(C)n1` the IC50 (cells [5]) was 2.27 µM (active).

— ChEMBL document CHEMBL1201862, “PubChem BioAssay data set” (2004)
